The record followed here is US8877801B2, “Compounds and compositions as selective estrogen receptor degraders” (Novartis AG, priority 2013, dated 2014).

This assay has as its target T1, ER (Homo sapiens, UniProt P03372).
T1 construct: transfected in MCF7 cells (containing endogenous ER); endogenous in cells; host or cells: MCF7 cells
T1 sequence (P03372 1-595): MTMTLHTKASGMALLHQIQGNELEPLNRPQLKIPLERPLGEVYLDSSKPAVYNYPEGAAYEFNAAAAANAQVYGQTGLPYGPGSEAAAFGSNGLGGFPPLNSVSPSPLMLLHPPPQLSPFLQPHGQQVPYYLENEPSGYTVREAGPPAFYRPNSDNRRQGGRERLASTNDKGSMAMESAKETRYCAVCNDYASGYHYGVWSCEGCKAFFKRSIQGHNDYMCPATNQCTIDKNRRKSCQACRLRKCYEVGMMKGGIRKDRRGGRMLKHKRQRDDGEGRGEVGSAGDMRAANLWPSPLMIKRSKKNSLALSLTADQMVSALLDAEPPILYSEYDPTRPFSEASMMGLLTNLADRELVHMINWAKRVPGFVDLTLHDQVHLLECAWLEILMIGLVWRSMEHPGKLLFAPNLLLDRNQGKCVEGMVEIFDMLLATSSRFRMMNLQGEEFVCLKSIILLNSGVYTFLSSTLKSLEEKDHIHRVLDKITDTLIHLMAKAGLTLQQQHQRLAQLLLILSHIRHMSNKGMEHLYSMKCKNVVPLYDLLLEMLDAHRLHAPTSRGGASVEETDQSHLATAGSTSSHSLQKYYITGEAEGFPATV
The assay is described as follows: ER transcription assay (MCF7 cells), ERE-luciferase reporter. Type of assay: cell-based. Particulars: MCF7 cells, ER reporter gene, 0.1 nM 17β estradiol, 24 hours; read-out: MCF7 IC50 (inflection point of the inhibition of transcription in MCF7 cells). From the text: ER Transcription Assay (MCF7 Cells)
The ER transcription assay is a reporter assay that is based on the ability of ER to induce transcription from a luciferase reporter gene containing estrogen response elements (EREs) in the promoter/enhancer region. When the reporter gene is transfected in MCF7 cells (containing endogenous ER), transcription is reflected by the level of luciferase expression.
A day before transfection, cells are split into a T75 flask at a cell density of 300,000 cells/mL (10 mL total) and allowed to attach overnight in a humidified CO2 incubator at 37° C.
Approximately 20 ug DNA is mixed in OptiMEM (Invitrogen) to a total volume of 650 μL. Following incubation, the OptiMEM-DNA mixture is added to the OptiMEM-Lipofectin mix and incubated for 15 minutes at 37° C. The DNA-Lipofectin mixture is then added directly to the T75 flask and the flask is returned to the incubator.
After overnight incubation, compound is added to individual wells of a 96-well plate in a 10 μL volume of media at 10× concentration along with 17β estradiol whose final concentration is 0.1 nM. Normally, DMSO (used as a vehicle) is included to achieve a final concentration of 0.1% when added to the cells. Transfected cells are trypsinized, resuspended in DMEM/F12/10% charcoal-stripped serum and added to the 96-well plate at 25,000 cells/well in 90 μL of media. The plate is then returned to the incubator for 24 hours.
After incubation with compounds for 24 hours, Firefly and Renilla luciferase activities are measured to determine ER transcriptional activity. Media is removed from 96-well plates by decanting and blotting on paper towels.
One second total read time after a one second delay.
One second total read time after one second delay. If Firefly luciferase signal is high, Renilla assay must be done an hour after the Firefly assay due to incomplete squelching of Firefly signal.
The data describing the antagonist and degradation properties for the examples is compiled in table 10. The column titled MCF7 IC50 reports the inflection point of the inhibition of transcription in MCF7 cells as described above. Percentage ERα remaining reports the remaining ERα protein measured at 10 μM concentration of the ligand as described above. The column ERα IC50 reports the inflection point of the degradation in response to the ligand concentration.
On the technique in general: Reporter assays use an easily measured gene product as a stand-in for the process of interest.

In the case of `Cc1cc(Oc2c(-c3ccc(O)cc3)sc3cc(O)ccc23)ccc1/C=C/C(=O)O` [Example 56, (E)-3-(4-((6-hydroxy-2-(4-hydroxyphenyl)-benzo[b]thiophen-3-yl)oxy)-2-methylphenyl)-acrylic acid], the IC50 – broadly, the concentration that inhibits the measured activity by half – was determined as 1270 nM. `O=C(O)/C=C/c1ccc(Oc2c(-c3ccc(C(F)F)cc3)sc3cc(O)ccc23)cc1` [Example 27, (E)-3-(4-((2-(4-(difluoromethyl)phenyl)-6-hydroxybenzo[b]thiophen-3-yl)oxy)phenyl)acrylic acid]: the IC50 came out at 7970 nM. In the case of `O=C(O)/C=C/c1ccc(Oc2c(-c3ccc(Cl)cc3)sc3cc(O)ccc23)cc1` [Example 6, (E)-3-(4-((2-(4-chlorophenyl)-6-hydroxybenzo[b]-thiophen-3-yl)oxy)phenyl)-acrylic acid], the 50% inhibitory concentration (IC50) was found to be 3100 nM. As to `O=C(O)CCc1ccc(Oc2c(-c3ccc(O)cc3)sc3cc(O)ccc23)cc1` [Example 1, 3-(4-((6-hydroxy-2-(4-hydroxyphenyl)benzo[b]thiophen-3-yl)oxy)phenyl)propanoic acid], the IC50 amounted to 457 nM. For `O=C(O)/C=C/c1ccc(Oc2c(-c3ccc(O)c(F)c3)sc3cc(O)ccc23)cc1` [Example 40, (E)-3-(4-((2-(3-fluoro-4-hydroxyphenyl)-6-hydroxybenzo[b]thiophen-3-yl)oxy)phenyl)acrylic acid], the IC50 turned out to be 424 nM. For `O=C(O)/C=C/c1ccc(Oc2c(-c3ccc(O)cc3)sc3cc(O)ccc23)cn1` [Example 29, (E)-3-(5-((6-hydroxy-2-(4-hydroxyphenyl)benzo[b]thiophen-3-yl)oxy)pyridin-2-yl)acrylic acid] the value was 7750 nM. Turning to `CN(C)Cc1ccccc1-c1sc2cc(O)ccc2c1Oc1ccc(/C=C/C(=O)O)cc1` [Example 77, (E)-3-(4-((2-(2-((dimethylamino)methyl)phenyl)-6-hydroxybenzo[b]thiophen-3-yl)oxy)phenyl)acrylic acid], the IC50 was found to be 40 nM. On to `CC(C)(C)c1ccc(-c2sc3cc(O)ccc3c2Oc2ccc(/C=C/C(=O)O)cc2)cc1` [Example 22, (E)-3-(4-((2-(4-(tert-butyl)phenyl)-6-hydroxybenzo[b]-thiophen-3-yl)oxy)phenyl)-acrylic acid], for which the IC50 amounted to 853 nM. Turning to `CCOC(=O)/C=C/c1ccc(Oc2c(-c3ccc(O)cc3)sc3cc(O)ccc23)c(C)c1` [Example 35, (E)-ethyl 3-(4-((6-hydroxy-2-(4-hydroxyphenyl)benzo[b]-thiophen-3-yl)oxy)-3-methylphenyl)acrylate], the IC50 is 103 nM.

Consider `O=C(O)/C=C/c1ccc(Oc2c(-c3cccc(F)c3)sc3cc(O)ccc23)cc1` [Example 7, (E)-3-(4-((2-(3-fluorophenyl)-6-hydroxybenzo[b]-thiophen-3-yl)oxy)phenyl)-acrylic acid], for which the IC50 amounted to 713 nM. Regarding `O=C(O)/C=C/c1ccc(Oc2c(-c3ccc(O)cc3)sc3c(F)c(O)c(F)cc23)cc1` [Example 38, (E)-3-(4-((5,7-difluoro-6-hydroxy-2-(4-hydroxyphenyl)benzo[b]-thiophen-3-yl)oxy)phenyl)acrylic acid], the IC50 is 152 nM. Consider `Cc1cc(F)ccc1-c1sc2cc(O)ccc2c1Oc1ccc(/C=C/C(=O)NO)cc1` [Example 32, (E)-3-(4-((2-(4-fluoro-2-methylphenyl)-6-hydroxybenzo[b]thiophen-3-yl)oxy)phenyl)-N-hydroxyacrylamide], for which the IC50 is 15 nM. Consider `Cc1cc(C)cc(-c2sc3cc(O)ccc3c2Oc2ccc(/C=C/C(=O)O)cc2)c1` [Example 23, (E)-3-(4-((2-(3,5-dimethylphenyl)-6-hydroxybenzo[b] - thiophen-3-yl)oxy)phenyl)-acrylic acid], for which the IC50 is 748 nM. As for `CC(C)(C)c1ccccc1-c1sc2cc(O)ccc2c1Oc1ccc(/C=C/C(=O)O)cc1` [Example 20, (E)-3-(4-((2-(2-(tert-butyl)phenyl)-6-hydroxybenzo[b]-thiophen-3-yl)oxy)phenyl)-acrylic acid], the IC50 came out at 36 nM.

Consider `COC(=O)/C=C/c1ccc(Oc2c(-c3ccc(F)cc3)sc3cc(O)ccc23)cc1` [Example 36, (E)-methyl 3-(4-((2-(4-fluorophenyl)-6-hydroxybenzo[b]thiophen-3-yl)oxy)phenyl)-acrylate], for which the IC50 was found to be 137 nM. The figure for `O=C(O)/C=C/c1ccc(Oc2c(-c3ccc(O)cc3)sc3c(F)c(O)ccc23)cc1` [Example 39, (E)-3-(4-((7-fluoro-6-hydroxy-2-(4-hydroxyphenyl)benzo[b]-thiophen-3-yl)oxy)phenyl)acrylic acid] is 653 nM; for `Cc1noc(C)c1-c1sc2cc(O)ccc2c1Oc1ccc(/C=C/C(=O)O)cc1` [Example 15, (E)-3-(4-((2-(3,5-dimethylisoxazol-4-yl)-6-hydroxybenzo-[b]thiophen-3-yl)oxy)-phenyl)acrylic acid] it is 404 nM; for `O=c1nc(/C=C/c2ccc(Oc3c(-c4ccc(O)cc4)sc4cc(O)ccc34)cc2)cc(C(F)(F)F)[nH]1` [Example 50, (E)-4-(4-((6-hydroxy-2-(4-hydroxyphenyl)-benzo[b]thiophen-3-yl)oxy)styryl)-6-(trifluoromethyl)-pyrimidin-2(1H)-one] it is 154 nM.

Turning to `Cc1ccccc1-c1sc2cc(O)ccc2c1Oc1ccc(/C=C/C(=O)O)cc1` [Example 5, (E)-3-(4-((6-hydroxy-2-(o-tolyl)benzo-[b]thiophen-3-yl)oxy)-phenyl)acrylic acid], the IC50 was found to be 89 nM. `CCCc1nnc(/C=C/c2ccc(Oc3c(-c4ccc(F)cc4C)sc4cc(O)ccc34)cc2)o1` [Example 47, (E)-2-(4-fluoro-2-methylphenyl)-3-(4-(2-(5-propyl-1,3,4-oxadiazol-2-yl)vinyl)phenoxy)benzo [b]thiophen-6-ol]: the half-inhibitory concentration (IC50) was found to be 111 nM. For `O=C(/C=C/c1ccc(Oc2c(-c3ccc(O)cc3)sc3cc(O)ccc23)cc1)NCCO` [Example 65, (E)-3-(4-((6-hydroxy-2-(4-hydroxyphenyl)benzo[b]-thiophen-3-yl)oxy)phenyl)-N-(2-hydroxyethyl)acrylamide] the value was 55 nM; for `CCOC(=O)/C=C/c1ccc(Oc2c(-c3ccc(O)cc3)sc3cc(O)ccc23)cc1C` [Example 34, (E)-ethyl 3-(4-((6-hydroxy-2-(4-hydroxyphenyl)benzo[b]-thiophen-3-yl)oxy)-2-methylphenyl)acrylate], 48 nM. For `O=C(O)/C=C/c1ccc(Oc2c(-c3ccccc3[N+](=O)[O-])sc3cc(O)ccc23)cc1` [Example 21, (E)-3-(4-((6-hydroxy-2-(2-nitrophenyl)-benzo[b]thiophen-3-yl)oxy)phenyl)-acrylic acid] the value was 313 nM; for `O=C(O)/C=C/c1ccc(Oc2c(-c3ccc(OC(F)(F)F)cc3)sc3cc(O)ccc23)cc1` [Example 59, (E)-3-(4-((6-hydroxy-2-(4-(trifluoromethoxy)-phenyl)benzo[b]thiophen-3-yl)oxy)phenyl)-acrylic acid], 1250 nM; for `NC(=O)/C=C/c1ccc(Oc2c(-c3ccc(O)cc3)sc3cc(O)ccc23)cc1` [Example 64, (E)-3-(4-((6-hydroxy-2-(4-hydroxyphenyl)-benzo[b]thiophen-3-yl)oxy)phenyl)acrylamide], 40 nM.

`CN(c1ccc(/C=C/C(=O)O)cc1)c1c(-c2ccc(O)cc2)sc2cc(O)ccc12` [Example 30, (E)-3-(4-((6-hydroxy-2-(4-hydroxyphenyl)benzo[b]thiophen-3-yl)(methyl)amino)phenyl)acrylic acid]: the IC50 was determined as 3400 nM.
